Experimental data as given in patent US20180258381A1, “BIO-LAMINA BIOREACTORS AND METHODS OF MAKING AND USING THE SAME” (Oregon State University, priority 2015, published 2018).

Legend:
M. trichosporium OB3b = test: Chemostat inhibition with cyclopropanol; assay type: cell-based
From the text: In one embodiment, a seven-liter chemostat was used to grow a culture of M. trichosporium OB3b without copper present, therefore expressing sMMO. The temperature-controlled jacketed reactor has multiple input and output lines for gas and liquid feed, a paddle stirrer for agitation, sensors for continuous monitoring of pH and DO, and metered oxygen delivery tied to a DO concentration set-point. The reactor was inoculated with a dilute culture of M. trichosporium OB3b and operated in batch mode for approximately one month before continuous fluid flow was established. […] A second two-liter chemostat growing a culture of M. trichosporium OB3b with copper present, expressing pMMO, also was used.
Cyclopropanol was added under batch-flow conditions with no methane being fed to the reactor to limit methanol competition for MDH and increase the effectiveness of the inhibitor. Methanol accumulated in solution for about 24 hours and then was slowly washed from the reactor (FIG. 35A). The microbial methanol production rate in the chemostat peaked within 24 hours at about 0.5 mg/(L*h) and was essentially zero after two days (FIG. 35B).
The activity results remained stable at the above values for 5 days after inhibition with cyclopropanol present throughout. […] Complete shutdown of methane oxidation within the chemostat most likely occurred due to very successful inhibition of MDH resulting in a loss of reducing power needed for MMO operation. […] By day 8, methane utilization and oxygen uptake were restored in the chemostat and the biomass concentration increased back to pre-inhibition values. […] The chemostat inhibition experiment is being conducted again with modifications to the concentration of inhibitor and conditions of inhibition in attempt to produce conditions for continuous methanol production and to maintain higher methane oxidation rates throughout.
In the first two embodiments an estimated 75 μg/L cyclopropanol (cPOH) was added to the chemostat. Methanol production by M. trichosporium OB3b within the chemostat lasted less than 12 hours. Following initial methanol production, cell growth ceased and cells began washing out of the reactor. Once signs of washout were observed formate was added to the chemostat to a concentration of 10 mM. […] In subsequent attempts at methanol production, smaller cyclopropanol additions were used in an attempt to inhibit the organisms enough to produce methanol without disrupting their ability to grow fast enough to avoid washout. […] In each case, a peak in cumulative methanol production was reached followed by a decline indicating the recovery of the methanol oxidation capability of the culture (FIG. 43). […] Since the cyclopropanol concentrations used in these examples were below the detection limit of the analytical method, the cyclopropanol fate in the chemostat is uncertain in some embodiments.
Throughout each experiment specific oxygen utilization rate (SOUR) tests were conducted with samples from the chemostat as indicators of MDH and methane monooxygenase (MMO) activity (FIGS. 44A and 44B). Methanol SOURs indicate essentially immediate inhibition of MDH activity, although it took up to 1 hour to reach a minimum in activity. Significant methane inhibition is indicated in the methane SOURs and it occurs with essentially the same magnitude and time scale as the methanol SOUR results. The recovery of MDH indicated by SOUR tests correlated with the observed reduction in cumulative methanol production in the chemostat. […] A peak in DO concentration was reached first followed by a peak in pH and lastly methanol concentration. The increase in pH and DO is expected to be the result of incomplete methane oxidation and a subsequent reduction in CO2 production.

[1] = test system: M. trichosporium OB3b culture; test: Column packed with culture immobilized in alginate beads, cPOH inhibition; assay type: cell-based
Description: In parallel with the BLP reactor runs, the response of methane consumption and MeOH production in a column packed with M. trichosporium OB3b culture immobilized in alginate beads (0.4 mg cell protein total) was evaluated. The column was incubated under batch conditions for 18 hours with cPOH, then quickly flushed with ˜10 pore volumes of dilute growth media, before dilute media flow containing ˜200 μM CH4 was begun at a rate of 41 ml/hour (FIG. 38). Over the course of day 1, 80±10% of influent CH4 was consumed and MeOH accumulated with an efficiency (MeOH produced/CH4 consumed) of 94±21%. […] To see if MeOH production could be renewed, the column was again exposed to cPOH for 18 hours as previously described. On days 3, 4, and 7, 66±8% of influent CH4 was consumed and MeOH accumulated with an efficiency of >90%.

OB3b cells = test: Long term packed column experiment, cyclopropanol inhibition; assay type: cell-based, M. trichosporium OB3b
Description: In some examples, OB3b cells were harvested from the chemostats described herein to make alginate beads for a long term packed column experiment. Total cell mass within the column was 300 mg with and the column void space was 6 mL. The flow rates of a methane solution (2 mg/L) were varied and the inlet and outlet concentrations were measured for a methane consumption efficiency curve shown in FIG. 45A.
An increase in methane consumption with an increase in residence time was observed. The column was then inhibited with cyclopropanol (1/10 dilution) for 18 hours. A flow rate of 2 mL/min was used for all further testing. Methane consumption decreased from 0.21 μmol/hr to 0.15 μmol/hr after the inhibition, while 0.13 μmol/hr of methanol was produced. After 24 hours methanol production decreased to 0.06 μmol/hr and methane consumption increased to 0.24 μmol/hr. The inhibition process was repeated for 18 hours and methanol production evaluated under the same operating conditions. The maximum methanol production rates lasted about 3 hours, and then declined, while methane consumption was maintained. Overall, the column responded similarly to two inhibitions ran at constant flow for two weeks with little problem.

[2] = test system: methanol dehydrogenase (MDH); test: MeOH consumption of fresh sMMO expressing culture exposed to cPOH; assay type: cell-based, M. trichosporium OB3b; settings: highest concentration of cPOH added with 1 mM MeOH
Description: In the absence of CH4, sMMO expressing OB3b in alginate beads were incubated 18 h with cyclopropane (CP, FIG. 36A) and produced an oxidized product hypothesized to be cyclopropanol (cPOH). cPOH is more water soluble than CP, enabling removal of CP by purging the headspace with air (FIG. 36B). Work is progressing on the identification cPOH by mass spec analysis. […] Inhibition of MDH was confirmed by exposing fresh non-inhibited sMMO expressing M. trichosporium OB3b to cPOH (FIG. 36D).
In the absence of cPOH 1 mM MeOH was consumed <10 minutes, but when cPOH was added with 1 mM MeOH there was a concentration dependent effect on the rate of MeOH consumption. At low and medium cPOH concentrations, significant amounts of MeOH were consumed before the initial time points could be taken.

MDH = test: cPOH inhibition of MDH of culture immobilized in alginate beads; assay type: cell-based
From the text: The examples described above can be used to determine optimal cPOH concentrations and exposure time to maximize MeOH production. In some examples, cPOH inhibition is rapid and irreversible. In some examples, cPOH inhibited MDH of culture immobilized in alginate beads in less than 100 seconds, and MDH inhibition was maintained after alginate beads were rinsed to remove cPOH.

[3] = post-inhibition microbial activity sampling
[4] = day 1, after 18 hours with cPOH
[5] = days 3, 4, and 7, after second 18 hours cPOH exposure
[6] = after inhibition with cyclopropanol (1/10 dilution) for 18 hours, flow 2 mL/min

SMILES: OC1CC1 [cPOH, cyclopropanol]
- duration of methanol production (M. trichosporium OB3b; addition of 2-8 mg/L cyclopropanol): 2 to 6 h
- effects on pH and DO concentrations within the chemostat (M. trichosporium OB3b; cPOH additions to reach 0.5 μg/L or lower): no discernable effects
- duration of methanol production within the chemostat (M. trichosporium OB3b; estimated 75 μg/L cyclopropanol added): less than 12 hours
- peak microbial methanol production rate in the chemostat (M. trichosporium OB3b; peaked within 24 hours after cyclopropanol addition): about 0.5 mg/(L*h)
- reduction in batch methane oxidation rate (M. trichosporium OB3b; [3]): 94%
- reduction in ethylene oxidation rate (M. trichosporium OB3b; [3]): 97%
- reduction in formate-dependent oxygen uptake rate (M. trichosporium OB3b; [3]): 20-25%
- reduction in methanol-dependent oxygen uptake rate (M. trichosporium OB3b; [3]): 95%
- MeOH accumulation efficiency (MeOH produced/CH4 consumed) [1, 4]: 94±21%
- influent CH4 consumed [1, 4]: 80±10%
- MeOH accumulation ([1]; day 2): no MeOH accumulated
- influent CH4 consumed ([1]; day 2): 67±6%
- MeOH accumulation efficiency (MeOH produced/CH4 consumed) [1, 5]: > 90%
- influent CH4 consumed [1, 5]: 66±8%
- methane consumption (OB3b cells; 24 hours after inhibition): 0.24 µmol/h
- methanol production (OB3b cells; 24 hours after inhibition): 0.06 µmol/h
- methane consumption (OB3b cells; [6]): 0.15 µmol/h
- methanol produced (OB3b cells; [6]): 0.13 µmol/h
- effect on rate of MeOH consumption [2]: significantly slowed MeOH consumption
- time to inhibit MDH (MDH): less than 100 seconds
